The source of these data is article PMC9890698 (BMC Biology, 2023).

Assay [1] concerns the target T1, Human P2Y1-R (Homo sapiens, UniProt P47900).
T1 construct: expressed in transfected cells; host or cells: HEK293T/17
Nature of the assay: IP1 accumulation assay (HTRF) in HEK293T cells expressing P2Y1-R. The class given is cell-based. The following applies: ADP 100 μM, MRS2179 10 μM, Gq inhibitor 100 nM, 2 h, result in words. In general terms: Time-resolved FRET reads energy transfer from a long-lived donor to a nearby acceptor.
Description: Since Gαq protein activation is known to induce PLC activation leading to IP3 and subsequent cytosolic calcium release, we analyzed the constitutive Gαq-dependent P2Y1-R signaling by quantifying intracellular inositol monophosphate (IP1) using a monoclonal antibody-based competitive ELISA. IP1 is a downstream metabolite of IP3 that accumulates in cells following Gαq protein-coupled receptor activation, making it an ideal readout for Gαq protein-dependent signaling pathways.

Assay [2] deals with washed murine platelets (P2Y1-R/Gαq signaling). Nature of the assay: IP1 accumulation assay (HTRF) in washed murine platelets. The conditions noted are these: washed murine platelets, ADP 100 μM, MRS2179 10 μM, Gq inhibitor 100 nM, 2 h, apyrase 0.02 U/mL, result in words. In kind it is cell-based, mouse. Here is the method:
As performed in HEK293T cells, we thus quantified intracellular IP1 levels to monitor Gαq protein-dependent signaling pathways.
Platelet-rich plasma (PRP) was obtained by mixing blood with 1 volume of modified Hepes Tyrode’s buffer (137 mM NaCl, 2 mM KCl, 12 mM NaHCO3, 0.3 mM NaH2PO4, 1 mM MgCl2, 2 mM CaCl2, 5.5 mM glucose, 5 mM HEPES, and 0.35% (w/v) BSA, pH 6.7) followed by a centrifugation at 150 g for 2 min at 37 °C. Then, platelets were pelleted by centrifugation at 1000 g for 4 min, resuspended in modified Hepes Tyrode’s buffer (pH 7.4), adjusted to 3.10^8 platelets/mL in the presence of 0.02 U/mL of apyrase and 10 μM indomethacin and rested for 45 minutes at 37°C before platelet stimulation. PGI2 (0.5 μM) was added before centrifugation steps to avoid platelet activation.
Quantification of intracellular IP1 was performed using the HTRF (Homogeneous Time Resolved Fluorescence) IP1 competitive immunoassay (IP-One Tb kit. Cisbio. France) according to the manufacturer’s instructions. Briefly, 20,000 HEK293T/17 cells or 3.10^6 platelets were distributed in a 384-well white microplate (Greiner) and incubated with the indicated molecules for 30 min or 2 h at 37 °C in the presence of 50 mM of LiCl to prevent IP1 degradation. After addition of d2-labeled IP1 (acceptor) and anti-IP1-Cryptate (donor) for 1 h, the specific FRET signals were calculated by the fluorescence ratio of the acceptor and donor emission signal (665/620 nm) collected using a modified Infinite F500 (Tecan Group Ltd). Conversion of the HTRF ratio of each sample into IP1 concentrations was performed on the basis of a standard curve to determine the linear dynamic range of the assay.

Assay [3] has as its target T1, Human P2Y1-R. Nature of the assay: β-arrestin 2 recruitment BRET1 assay (β-arrestin 2-RLuc / P2Y1-R-Venus) in HEK293T cells. In kind it is cell-based. The conditions noted are these: for b-arrestin 2 signaling, Ligand-modulated BRET (% of maximum MRS2179 mean value): Figure 4b, individual replicates; for Effect on β-arrestin 2 recruitment / BRET signal between P2Y1-R-Venus and β-arrestin 2-RLuc: HEK293T cells, high P2Y1-R expression, result in words; for EC50 / pEC50 ± s.e.m.: β-Arrestin 2 signaling, Fig. 4b, 15 min. The source says:
We assessed β-arrestin 2 recruitment to the receptor using BRET^1 assay. The assay measures the interaction between β-arrestin 2 fused to the Renilla reniformis luciferase (RLuc) energy donor and the receptor fused to fluorescent Venus energy acceptor (Fig. 3a). The recruitment of cytosolic β-arrestin 2 to the receptor at the plasma membrane in the presence of an agonist will promote a significant increase of the BRET signal compared to the basal state, reflecting the close proximity between the β-arrestin 2 energy donor and the receptor energy acceptor [22].
Human P2Y1-R (NCBI Reference Sequence: NM_002563.2) and P2Y12-R (NCBI Reference Sequence: NM_022788.3) were fused to double Myc epitope and rat AT1-R (NCBI Reference Sequence: NM_030985.4) to HA tag in N-terminus extracellular region. Alternatively, receptors were also fused to Venus tag in C-terminus intracellular region. Plasmids encoding Gαq-RLuc8, GFP2-Gγ2 and untagged Gβ1 were previously described. ADP was purchased from Sigma-Aldrich/Merck (Darmstadt, Germany). […] The Gq inhibitor (FR900359) was kindly supplied by Evi Kostenis (University of Bonn. Germany).
G protein activation and β-arrestin 2 recruitment were performed as previously described. Briefly, vectors encoding receptors, Gαq-RLuc8, GFP2-Gγ2, Gβ1, or β-arrestin 2 were transiently cotransfected into HEK293T/17 cells as indicated in the figure legends. Forty-eight hours after transfection, cells were washed and resuspended in PBS containing 0.1% (w/v) glucose at room temperature and then distributed (80 μg proteins/well) in a 96-well microplate (PerkinElmer). For G protein activation experiments (BRET^2), cells were incubated in the absence (basal BRET signal) or in the presence of ligand for 1 minute. BRET signal between RLuc8 and GFP2 was measured after addition of the luciferase substrate coelenterazine 400a (5 μM). For β-arrestin 2 recruitment (BRET^1), cells were stimulated with ligands for 5 or 15 min. BRET signal was recorded after incubation with coelenterazine h (5 μM) for 8 min. For kinetics studies, BRET signal between RLuc and Venus was recorded at 20-s intervals at basal state for the 2 first minutes and then for 5 min after ligand injection. For saturation curves (BRET^1), the expression level of Venus- or RLuc-tagged protein was determined by direct measurement of total fluorescence and luminescence respectively. Total fluorescence was first measured with an excitation filter at 485 nm and an emission filter at 520 nm. Then, the same sample was incubated for 8 minutes with 5 μM coelenterazine h and the total luminescence was measured. BRET^2 and BRET^1 readings were collected using a modified Infinite F500 (Tecan Group Ltd). The BRET^2 signal was calculated by the ratio of emission of GFP2 (510–540 nm) to RLuc8 (370–450 nm) and the BRET^1 signal by the ratio of emission of Venus (520–570 nm) to RLuc (370–480 nm). Sometimes, results are expressed as the Net BRET computed by deducting the BRET background signal (obtained in the presence of the energy donor alone) from the BRET signal (acquired from cells expressing both the energy donor and acceptor).
In general terms: Arrestin recruitment assays detect the binding of arrestin to an activated receptor.

“And” between values parts separate entries of the source, which are not always exact repeats. Identical values can stand only once.

T1 sequence (P47900 whole entry): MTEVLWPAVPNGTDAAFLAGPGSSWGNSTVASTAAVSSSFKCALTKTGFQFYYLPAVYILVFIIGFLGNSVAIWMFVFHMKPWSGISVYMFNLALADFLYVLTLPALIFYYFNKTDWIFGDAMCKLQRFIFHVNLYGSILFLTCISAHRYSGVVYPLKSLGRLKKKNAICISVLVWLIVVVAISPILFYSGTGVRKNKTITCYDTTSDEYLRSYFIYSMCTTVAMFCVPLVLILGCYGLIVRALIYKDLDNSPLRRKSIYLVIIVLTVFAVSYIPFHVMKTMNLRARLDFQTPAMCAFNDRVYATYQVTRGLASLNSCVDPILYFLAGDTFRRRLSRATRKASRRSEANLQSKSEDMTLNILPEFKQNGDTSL

In the case of `Nc1ncnc2c1ncn2[C@@H]1O[C@H](COP(=O)(O)OP(=O)(O)O)[C@@H](O)[C@H]1O` [ADP, adenosine diphosphate], the “Effect on IP1 production” value at Human P2Y1-R [1] is reported as “slightly but significantly potentiated”. Also, the “Effect on IP1 levels” value in assay [2] is reported as “significantly increased”.
What is called EC50 is the concentration needed to bring the measured effect to its halfway point. `CNc1nc(I)nc2c1ncn2[C@H]1C[C@H](OP(=O)(O)O)[C@]2(COP(=O)(O)O)C[C@H]12` [MRS2500, 2-iodo-N6-methyl-(N)-methanocarba-2′-deoxyadenosine-3′,5′-bisphosphate]: the “b-arrestin 2 signaling, Ligand-modulated BRET (% of maximum MRS2179 mean value)” value on Human P2Y1-R [3] ([Ligand] 1.00E-04 M) is -104.002 % of maximum MRS2179 mean value and -94.5729 % of maximum MRS2179 mean value and -88.0915 % of maximum MRS2179 mean value and -87.9506 % of maximum MRS2179 mean value and -95.5776 % of maximum MRS2179 mean value; on Human P2Y1-R [3] ([Ligand] 1.00E-05 M), -100.008 % of maximum MRS2179 mean value and -86.7675 % of maximum MRS2179 mean value and -90.0217 % of maximum MRS2179 mean value and -77.5434 % of maximum MRS2179 mean value and -80.2036 % of maximum MRS2179 mean value; on Human P2Y1-R [3] ([Ligand] 1.00E-06 M) it was -95.5169 % of maximum MRS2179 mean value and -78.4136 % of maximum MRS2179 mean value and -91.3759 % of maximum MRS2179 mean value and -80.0813 % of maximum MRS2179 mean value and -75.5319 % of maximum MRS2179 mean value; on Human P2Y1-R [3] ([Ligand] 1.00E-07 M) it was -75.2707 % of maximum MRS2179 mean value and -41.8369 % of maximum MRS2179 mean value and -76.2614 % of maximum MRS2179 mean value and -66.0129 % of maximum MRS2179 mean value and -61.7221 % of maximum MRS2179 mean value; on Human P2Y1-R [3] ([Ligand] 1.00E-08 M), -7.396 % of maximum MRS2179 mean value and -28.7379 % of maximum MRS2179 mean value and -20.7409 % of maximum MRS2179 mean value and -45.6895 % of maximum MRS2179 mean value and -5.348 % of maximum MRS2179 mean value; at Human P2Y1-R [3] ([Ligand] 1.00E-09 M), -12.4711 % of maximum MRS2179 mean value and -18.0888 % of maximum MRS2179 mean value and -11.5273 % of maximum MRS2179 mean value and -5.043 % of maximum MRS2179 mean value and 9.479 % of maximum MRS2179 mean value. Also, the “b-arrestin 2 signaling, Ligand-modulated BRET (% of maximum MRS2179 mean value)” value at Human P2Y1-R [3] ([Ligand] 1.00E-10 M) is -23.8118 % of maximum MRS2179 mean value and -10.0375 % of maximum MRS2179 mean value and -6.745 % of maximum MRS2179 mean value and -2.51 % of maximum MRS2179 mean value and -4.926 % of maximum MRS2179 mean value. At Human P2Y1-R [3], the “Effect on β-arrestin 2 recruitment / BRET signal between P2Y1-R-Venus and β-arrestin 2-RLuc” value is listed as “behaved as inverse agonists”. Moreover, at Human P2Y1-R [3] (compared to MRS2179, from potencies of Table 1), the “Signaling bias (β-arrestin 2 versus Gαq protein signaling)” value is “biased inverse agonist”. The same molecule yielded an EC50 at Human P2Y1-R [3] of 0.0475 µM. Also, the “pEC50 ± s.e.m.” value at Human P2Y1-R [3] was found to be 7.323 ± 0.1193.
`CNc1nc(Cl)nc2c1ncn2[C@H]1CC(OP(=O)(O)O)[C@]2(COP(=O)(O)O)C[C@H]12` (stereo in doubt) [MRS2279]: the “b-arrestin 2 signaling, Ligand-modulated BRET (% of maximum MRS2179 mean value)” value at Human P2Y1-R [3] ([Ligand] 1.00E-04 M) is -69.6106 % of maximum MRS2179 mean value and -105.156 % of maximum MRS2179 mean value and -85.2747 % of maximum MRS2179 mean value and -86.0383 % of maximum MRS2179 mean value and -102.622 % of maximum MRS2179 mean value; on Human P2Y1-R [3] ([Ligand] 1.00E-05 M), -58.9493 % of maximum MRS2179 mean value and -35.292 % of maximum MRS2179 mean value and -0.8674 % of maximum MRS2179 mean value and -67.8538 % of maximum MRS2179 mean value and -74.7757 % of maximum MRS2179 mean value; at Human P2Y1-R [3] ([Ligand] 1.00E-06 M), -39.831 % of maximum MRS2179 mean value and -16.8165 % of maximum MRS2179 mean value and 4.878 % of maximum MRS2179 mean value and -40.0637 % of maximum MRS2179 mean value and -56.9245 % of maximum MRS2179 mean value; on Human P2Y1-R [3] ([Ligand] 1.00E-07 M), -39.6457 % of maximum MRS2179 mean value and -31.8109 % of maximum MRS2179 mean value and -14.3137 % of maximum MRS2179 mean value and -31.2635 % of maximum MRS2179 mean value and -51.8509 % of maximum MRS2179 mean value; on Human P2Y1-R [3] ([Ligand] 1.00E-08 M) it was -22.0748 % of maximum MRS2179 mean value and -36.9002 % of maximum MRS2179 mean value and -1.913 % of maximum MRS2179 mean value and -12.8092 % of maximum MRS2179 mean value and -19.8439 % of maximum MRS2179 mean value; at Human P2Y1-R [3] ([Ligand] 1.00E-09 M), -17.6957 % of maximum MRS2179 mean value and -18.0324 % of maximum MRS2179 mean value and -16.7903 % of maximum MRS2179 mean value and 1.141 % of maximum MRS2179 mean value and 5.256 % of maximum MRS2179 mean value. Further, the “b-arrestin 2 signaling, Ligand-modulated BRET (% of maximum MRS2179 mean value)” value at Human P2Y1-R [3] ([Ligand] 1.00E-10 M) was -24.7041 % of maximum MRS2179 mean value and -19.9635 % of maximum MRS2179 mean value and -11.9373 % of maximum MRS2179 mean value and -22.7633 % of maximum MRS2179 mean value and -19.9712 % of maximum MRS2179 mean value. Also, the “Effect on β-arrestin 2 recruitment / BRET signal between P2Y1-R-Venus and β-arrestin 2-RLuc” value on Human P2Y1-R [3] is reported as “behaved as inverse agonists”. The EC50 on Human P2Y1-R [3] was 19.4 µM. At Human P2Y1-R [3], the “pEC50 ± s.e.m.” value was determined as 4.712 ± 0.2838.
